Test results: a melting point compilation (Tetko et al.; mined from patent text by program, amines drawn as free bases though some values may be those of a salt)

melting point	SMILES
273 °C	Cc1ccnc(P(=O)(O)O)c1
177 to 178 °C	CCOC(=O)c1cn(CC)c2cc3c(cc2c1=O)OCO3
147 °C	Cc1ccc(-c2cncn2-c2ccc(S(C)(=O)=O)cc2)cc1F
115 to 117 °C	CCCc1nn(C)c2c(=O)[nH]c(-c3cc(CCCN)ccc3OCC)nc12
172 to 174 °C	CC(C)C(C)(NC(=O)c1nc2ccccc2cc1C(=O)O)C(N)=O (centres undefined)
154 to 156 °C	CCn1c(C=Cc2ccccc2)cnc1[N+](=O)[O-]
215 °C	CCN(c1ccc(N2CCN(c3ccc(O)cc3)CC2)cc1)c1nccs1
82 to 84 °C	CC1(C)CC(=O)C(C)(C)c2cc(C=O)ccc21
118 to 120 °C	CC(=O)NCCC(C)c1ccc(-c2ccc(Cl)cc2)cc1 (centres undefined)
48 to 49 °C	O=C1C(=C(O)C(F)(F)F)CCc2ccccc21
187 to 190 °C	CCc1cccc(Cl)c1C(=O)N[C@@H](Cc1ccc(-c2c(C)n(C)c(=O)n(C)c2=O)cc1)C(=O)O
108 to 110 °C	CCOC(=O)C(=CNc1ccc(OC)c(=O)cc1)C(=O)OCC
178 to 180 °C	CNC(=O)CC1CN=C(c2cc3cc(Oc4ccc(S(C)(=O)=O)nc4)ccc3[nH]2)S1 (centres undefined)
65 to 66 °C	COc1ccc2cc([C@H](C)C(=O)OC[C@@]3(C)COC(C)(C)O3)ccc2c1
185 to 187 °C	Cc1cc2c(nc(C)n2CCc2ccccc2)c(N)n1
106 to 108 °C	COC(=O)c1ccccc1NS(=O)(=O)NC(C)C
135 to 136 °C	Nc1ccc(Oc2ccccc2Oc2ccc(N)cc2)cc1
185 to 187 °C	COc1ccc(C(=O)Nc2ccccc2)cc1NCc1ccc2c(c1)OCO2
203 to 204 °C	COc1ccc(C(=O)NCc2ccc(Br)cc2F)c(OCC(=O)O)c1
83 to 84 °C	Fc1ccc(-c2cc(CCC#Cc3ccccn3)on2)cc1
220 to 222 °C	FC(F)(F)Oc1ccc(Nc2cc(-c3ccccc3)nc(-c3ccccc3)n2)cc1
165 to 167 °C	O=C(O)c1cc(=O)c(Sc2ccc(Cl)cc2)co1
138 to 139 °C	CC(C)(C)c1ccc(CC(=O)O)c(Cc2ccc(CC(=O)O)cc2)c1
> 250 °C	O=[N+]([O-])c1ccc(Oc2c(Cl)cc(S(=O)(=O)Nc3nc(-c4cccc([N+](=O)[O-])c4)cs3)cc2Cl)cc1
150 to 152 °C	CC1(C)CC(NC(=O)Nc2ccccc2)c2cc(C#N)ccc21 (centres undefined)

melting point	SMILES
82 to 83 °C	Brc1ccc(N=C(c2ccccc2)c2ccccc2)cc1
135 to 142 °C	COc1cccc(CN2CCC(NC(=O)c3cnc4c(OC)cccc4c3Nc3ccc(C(=O)NC4CCN(Cc5ccccc5)CC4)cc3)CC2)c1
149 to 151 °C	Cc1cccc(-c2n[nH]cc2-c2ccc(F)c(-c3ccc(C(C)O)cn3)c2)n1 (centres undefined)
167 to 170 °C	O=C1CNc2ccccc2CN1
95 to 97 °C	CCOC(=O)c1ccc(NC(=O)NCCN2CCN=C2c2ccccn2)cc1
141 to 142 °C	O=C1CC2CCc3ccncc3C2=NN1c1ccc(C(F)(F)F)cc1 (centres undefined)
183 to 185 °C	N#CSc1nc(I)ncc1I
152 to 153 °C	CN(c1cc(OC(F)(F)F)cc2cc(C3=NCC(CCO)S3)[nH]c12)S(=O)(=O)c1cccs1 (centres undefined)
95 to 96 °C	CC(Nc1ccc([N+](=O)[O-])cc1)c1ccccc1 (centres undefined)
203 to 208 °C	CCCn1c(COCC)nc2c(N)nc3ccc(OCCNC(=O)N4CCOCC4)cc3c21
191 to 192 °C	Cc1cccc(-c2nc3ccc(Cl)nn3c2-c2ccnc(Nc3ccccc3C)c2)c1
184 to 186 °C	CN(C)C(=S)Sc1cc(=O)n(Cc2ccccc2)s1
150 to 160 °C	CCOC(=O)c1cn(CC)c2nc(Cl)c(F)cc2c1=O
162 to 164 °C	Nc1c(I)c(-c2ccccc2)nn1-c1c(Cl)cc(C(F)(F)F)cc1Cl
192 to 195 °C	CSc1nc(N)c(C(N)=S)s1
152 °C	COc1cc(C)c(C(=O)c2c(Cl)cccc2Cl)cc1OCC1CC1
71 to 72 °C	CCOC(=O)C(=O)c1cn(CCN(C)C)c2ccccc12
212 to 216 °C	Nc1ncnc2c1ncn2Cc1oc2ccccc2c(=O)c1-c1ccc(F)cc1
85 to 87 °C	CCN(CC)C(=O)c1cc(-c2ccccc2)ccc1OC
104 °C	CCOP(=O)(OCC)c1cc2nc(OCc3ccccc3)c(OCc3ccccc3)nc2c2c1CN(C)CC2
125 °C	CN(C)C=Nc1ccc(-c2ccc(Cl)cc2)cn1
66 to 77 °C	CCOC(=O)c1cc2ccoc2nc1C(=O)OCC
75 to 76 °C	COC(=O)Nc1ccc(OC(=O)OC)cc1
231 to 235 °C	CS(=O)(=O)c1c(C(=O)O)ccc(Cl)c1Oc1ccccc1
186 to 187 °C	COc1ccc(/C=C(\C#N)c2ccc([N+](=O)[O-])cc2)cc1OC1CCCC1

melting point	SMILES
179 to 180 °C	Cc1c([N+](=O)[O-])ccc2[nH]ccc12
144 to 146 °C	COc1cc2c(cc1C#N)[C@@H](O)[C@H](Br)C(C)(C)O2 (relative stereo)
200 to 202 °C	O=C(CNC(=O)OCc1ccccc1)Nc1nnc(SCc2ccccc2)s1
222 °C	CCCCn1c(=S)sc2c(=N)n(NC(N)=O)cnc21
253 to 255 °C	CC1(C(=O)Nc2ccc(C3=NNC(=O)C4CC34)cc2)CC1 (centres undefined)
119 to 121 °C	NS(=O)(=O)NC[C@H]1COc2cc(Cl)c(Cl)cc2O1
212 to 215 °C	CCC(C)(C)c1ccc(Oc2cc(NC(=O)Nc3ccc(C#N)cc3)c(O)cc2[N+](=O)[O-])c(C(C)(C)CC)c1
180 to 182 °C	CN1C(=O)n2c(nc3ccccc32)NC12CCCC2
156 to 157 °C	CSC[C@H](NC(C)=O)C(=O)N(C)N
179 to 181 °C	c1ccc(CC2CCN(Cc3nc4ccccc4[nH]3)CC2)cc1
208 °C	O=C(O)c1cnc2cc(OCc3ccccc3)c(OCc3ccccc3)cn2c1=O
242 to 244 °C	CCSc1nc2c(cc1F)c(=O)c(C(=O)O)cn2C1CC1
193 to 194 °C	Cc1c(N)nc(Cl)nc1Cl
143 to 146 °C	CC(C)=C1CCCP1(=O)c1ccccc1 (centres undefined)
225 °C	CCOC(=O)c1ccc(COCc2csc3nc(C(=O)NCc4ccnc(OCC5CCOC5)c4)[nH]c(=O)c23)cc1 (centres undefined)
92 to 94 °C	NC(=O)c1cccc(C2OCCO2)c1
254 to 256 °C	Cc1ccn2c(C)c(-c3ccc4c(c3)NC(=O)C(C)O4)nc2c1 (centres undefined)
> 300 °C	O=C1CCc2cc(N/C(=C3\C(=O)Nc4ccc([N+](=O)[O-])cc43)c3ccccc3)ccc2N1
129 to 130 °C	O=Cc1cccc(-c2nnc(-c3ccc(C(F)(F)F)cc3)o2)c1
191 to 193 °C	CC(C)S(=O)(=O)n1c(N)nc2ccc(C(=O)c3ccccc3)cc21
126 to 127 °C	OC1(C(F)(F)F)ON=C(c2ccc(Cl)cc2)C1Cl (centres undefined)
118 to 119 °C	CCOC(=O)c1ccc2c(c1)OC(CCCBr)C(=O)N2 (centres undefined)
143 to 145 °C	CCC1CCCCN1C(=O)C=Cc1c(-c2cccc(NC(=O)OC)c2)nn2ccccc12 (centres undefined)
151 to 152 °C	CCOC(=O)c1cn(C)cc(-c2cccc(C(F)(F)F)c2)c1=O
196 to 200 °C	CC(=O)Nc1cc(OS(=O)(=O)c2ccc(C)cc2)nc(=N)n1OC(C)=O

melting point	SMILES
122 to 123 °C	CCn1nc(-c2ccc(OC)cc2)cc(C(=O)NC)c1=O
55 to 57 °C	COc1cc(C(=O)N2CCC(CCN3CCC(C(=O)c4nc5ccccc5n4Cc4ccc(F)cc4)CC3)(c3ccc(C(F)(F)F)cc3)C2)cc(OC)c1OC (centres undefined)
211 to 213 °C	COCC#Cc1cc(OC)c2ncc(C(=O)NCc3ccc(Cl)cc3)c(O)c2c1
183 °C	CC(=O)C(C)Oc1cc(-n2c(=O)cc(C(F)(F)F)[nH]c2=O)c(F)cc1Br (centres undefined)
30 °C	CC(N)c1c[nH]c(-c2ccccc2)n1 (centres undefined)
178 to 184 °C	O=C(O)Cc1c([N+](=O)[O-])cc(O)c(O)c1[N+](=O)[O-]
86.5 to 88.5 °C	CN(C)C=C(C=O)c1ccccc1Cl
140 to 142 °C	COc1cn(-c2ccc(C3CC3)cc2F)nc(-c2ccnn2-c2ccccc2)c1=O
135 to 137 °C	Cc1cccc(CC(Nc2ccccc2)C(=O)NC(C#N)COCc2cccc(C(=O)O)c2)c1 (centres undefined)
148 to 149 °C	CCOC(=O)C(C=O)Cc1cnc(C)c(C)c1 (centres undefined)
83 to 85 °C	Cc1ccn2c(C)c(CCc3ccc4nc(C)oc4c3)nc2c1
200 °C	CCCc1nc(C)nc(O)c1Cc1ccc([N+](=O)[O-])cc1
55.4 °C	CC(C)(C)C1CC(=O)CC(C(C)(C)C)N1 (centres undefined)
138 to 139 °C	CCc1ccc(S(=O)(=O)Nc2cccnc2Nc2ccccc2)cc1
82 °C	CC(C)(O)C[C@@H]1CO[C@](C)([C@H]2CC[C@H]3C(=O)CCC[C@@]32C)C1
64.5 to 65.5 °C	CCOC(=O)c1c(C(F)(F)C(F)(F)F)[nH]c(C(F)(F)C(F)(F)F)c1C(=O)OCC
103 to 125 °C	COCCc1nc2c(N)nc3ccccc3c2n1CC(C)(C)CNC(=O)c1ccccc1
150 to 152 °C	O=C1CN(Cc2ccccc2)C(=S)N1
99 to 102 °C	Cc1nc2ccccc2nc1Oc1ccc(OCc2ccccc2)cc1
171 to 175 °C	c1ccc2c3c4c(nc2c1)CCCC4SCCN3 (centres undefined)
178 to 180 °C	CC(=O)CCCCC(=O)Nc1ccc(CC(NC(C)=O)C(=O)NCC(=O)OCc2ccccc2)cc1 (centres undefined)
147 to 148 °C	O=C(O)/C=C\C=C(c1ccccc1F)c1ccccc1F
183 to 186 °C	COc1ncc(CS(=O)(=O)CC(=O)O)cc1[N+](=O)[O-]

SMILES	melting point
O=C(N[C@@H]1C=CC[C@H]1O)OCC(Cl)(Cl)Cl	82 to 84 °C
Cc1ccc(C(=O)P2(=O)Oc3ccccc3-c3ccccc32)c(C)c1 (centres undefined)	166 °C
Cc1csc(C(=O)CCl)c1	76 to 77 °C
CN(C(=O)Cc1cccc2ccccc12)C1c2ccccc2CC1N1CCCC1 (centres undefined)	127 °C
CNC1(c2cccs2)CCC(=O)CC1	72 to 74 °C
CC#CC1(O)CCC2C3CCC4=CC(=O)CCC4C3CCC21CC (centres undefined)	124 to 125 °C
